Broadly, the IC50 is the point on the concentration scale where inhibition reaches its midpoint.

Among the data in BindingDB's records for patent US20250235456 (Iambic Therapeutics, 2025) are IC50 values, retold here.

Experiment [1] addresses Cyclin-dependent kinase 1 (Homo sapiens, UniProt P06493). Description: CDK1/Cyclin B1 ADP-Glo Kinase Assay. The method, then: (§1) The purpose of CDK1/Cyclin Bi assay is to evaluate the inhibition (% inhibition and IC50 values) of small molecule inhibitors by using a Luminescent based ADP-Glo assay. CDK1/Cyclin B1 catalyzes the production of ADP from ATP. ADP-Glo assay monitors ADP producing biochemical reactions. ADP-Glo is performed in 2 steps upon completion of kinase reaction: a combined termination of kinase reaction and depletion of remaining ATP in the first step, and conversion of generated ADP to ATP and the newly produced ATP to light output using luciferase/luciferin reaction in the second step. The luminescent signal generated is proportional to the ADP concentration produced and is correlated with the kinase activity. CDK1/Cyclin B1 was purchased from Carna (Cat 04-102). […] The assay was initiated with the addition of ATP-containing substrate solution, following a 30-minute pre-incubation of enzyme and inhibitor at room temperature in the reaction mixture. The reaction was stopped after 90 minutes at room temperature by the addition of 10 μL of ADP-GLO Reagent. After a 90 minute incubation, 20 μL of Kinase Detection Reagent was added. Samples were incubated for 40 minutes, after which plate well luminescence was measured on a Envision microplate reader. The IC50 determinations were made from a plot of the fractional velocity as a function of inhibitor concentration fit to the 4 parameters IC50 equation.
(ADP-Glo turns the ADP formed in a reaction into a luminescent signal.)

For experiment [2], the target named is Cyclin-dependent kinase 2/G1/S-specific cyclin-E1 (Homo sapiens, UniProt P24941). Put plainly: CDK2/Cyclin E1 ADP-Glo Kinase Assay. On the procedure: as §1, with “of CDK2/Cyclin El” for “of CDK1/Cyclin Bi”, “assay. CDK2/Cyclin El full length” for “assay. CDK1/Cyclin B1”, “activity. CDK2/Cyclin E1” for “activity. CDK1/Cyclin B1”, “from Eurofins” for “from Carna”, “(Cat 14-475M).” for “(Cat 04-102).”, “20 uL” for “20 μL”

In experiment [3] the target is Cyclin-dependent kinase 6/G1/S-specific cyclin-D3 (Homo sapiens, UniProt Q00534). Put plainly: CDK6/Cyclin D3 ADP-Glo Kinase Assay. On the procedure: as §1, with “of the CDK6/Cyclin D3” for “of CDK1/Cyclin Bi”, “values) in the presence” for “values)”, “assay. CDK6/Cyclin D3” for “assay. CDK1/Cyclin B1”, “activity. CDK6/Cychin D3” for “activity. CDK1/Cyclin B1”, “from Carna.” for “from Carna (Cat 04-102).”, “a 90-minute” for “a 90 minute”
Cyclin-dependent kinase 6/G1/S-specific cyclin-D3, sequence (Q00534 whole entry): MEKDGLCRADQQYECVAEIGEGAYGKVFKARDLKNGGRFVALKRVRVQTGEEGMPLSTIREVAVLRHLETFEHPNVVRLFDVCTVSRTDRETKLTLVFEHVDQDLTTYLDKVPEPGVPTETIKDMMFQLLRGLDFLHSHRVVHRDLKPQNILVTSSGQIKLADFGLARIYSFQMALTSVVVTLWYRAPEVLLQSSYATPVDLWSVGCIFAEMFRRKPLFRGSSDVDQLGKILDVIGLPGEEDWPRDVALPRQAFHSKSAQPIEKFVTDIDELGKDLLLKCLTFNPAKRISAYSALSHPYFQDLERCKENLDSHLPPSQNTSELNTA
Cyclin-dependent kinase 6/G1/S-specific cyclin-D3, sequence (P30281 whole entry, further chain): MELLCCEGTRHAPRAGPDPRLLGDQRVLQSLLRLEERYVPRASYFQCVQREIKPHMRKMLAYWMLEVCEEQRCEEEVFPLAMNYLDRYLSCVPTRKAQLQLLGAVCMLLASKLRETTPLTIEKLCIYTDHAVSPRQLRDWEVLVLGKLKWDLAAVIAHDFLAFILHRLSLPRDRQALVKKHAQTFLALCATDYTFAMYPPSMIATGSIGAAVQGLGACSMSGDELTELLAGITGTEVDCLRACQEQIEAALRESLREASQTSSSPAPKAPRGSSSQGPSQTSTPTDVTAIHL

Cyclin-dependent kinase 1, sequence (P06493 whole entry): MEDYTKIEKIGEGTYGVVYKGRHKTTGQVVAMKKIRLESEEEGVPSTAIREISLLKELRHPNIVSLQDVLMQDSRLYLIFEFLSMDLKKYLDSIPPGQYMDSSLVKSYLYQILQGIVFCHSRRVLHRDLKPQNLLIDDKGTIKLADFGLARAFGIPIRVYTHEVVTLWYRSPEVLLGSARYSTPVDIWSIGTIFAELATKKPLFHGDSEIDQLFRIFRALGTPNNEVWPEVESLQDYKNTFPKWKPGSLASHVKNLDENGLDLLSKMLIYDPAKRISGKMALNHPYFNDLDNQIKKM

Take `CN1Cc2ccc(Nc3ncc4ccnc(N5CCC6(C5)CC6(F)F)c4n3)cc2C1` (stereo unspecified) [US20250235456, Compound 22]: the IC50 in experiment [1], in experiment [2] and in experiment [3] was less than 0.2 µM throughout.
Regarding `Cc1cc2cnc(Nc3cnn(CC4(N(C)C)CC4)c3)nc2c(N2CCC3(C2)CC3(F)F)n1` (stereo unspecified) [US20250235456, Compound 36], the half-maximal inhibitory concentration (IC50) is greater than 2 µM in experiment [1] and “in the range around 0.35 µM” in experiment [2].
Regarding `Cc1cc2cnc(NC3CC4CC3CN4C)nc2c(N2CCC3(C2)CC3(F)F)n1` (stereo unspecified) [US20250235456, Compound 43], the IC50 was greater than 2 µM in experiment [1], “in the range around 1.25 µM” in experiment [2] and 0.2 to 0.5 µM in experiment [3].
Regarding `Cc1cc2cnc(NC3CCN(S(=O)(=O)C4CC4)CC3)nc2c(N2CC3(C2)CN(C2CC2)C3)n1` [US20250235456, Compound 48], the IC50 in experiment [2] is less than 0.2 µM; in experiment [3], 0.2 to 0.5 µM.
`Cc1cc2cnc(NC3CCN(S(=O)(=O)C4CC4)CC3)nc2c(N2CC(OC3CC3)C2)n1` [US20250235456, Compound 57]: the IC50 is 0.2 to 0.5 µM in experiment [1], less than 0.2 µM in experiment [2] and less than 0.2 µM in experiment [3].
`Cc1cc2cnc(NC3CCN(S(=O)(=O)C4(C)CC4)CC3)nc2c(N2CCC3(CN(C)C3)C2)n1` [US20250235456, Compound 59]: the IC50 in experiment [2] and in experiment [3] was less than 0.2 µM in each case.
Consider `Cc1cc2cnc(NC3CCN(S(=O)(=O)C4CC4)CC3)nc2c(N2CC3(CC(O)C3)C2)n1` [US20250235456, Compound 66], for which the 50% inhibitory concentration (IC50) in experiment [2] and in experiment [3] was less than 0.2 µM in each case.
In the case of `Cc1cc2cnc(NC3CCN(S(=O)(=O)CCC4(C)CC4)CC3)nc2c(N2CC(F)(F)C3(CNC3)C2)n1` [US20250235456, Compound 67], the IC50 in experiment [1] was 0.2 to 0.5 µM; in experiment [2], less than 0.2 µM; in experiment [3], 0.2 to 0.5 µM.
Consider `Cc1cc2cnc(NC3CCN(S(C)(=O)=O)CC3)nc2c(C2CC(C)(CO)C2)n1` (stereo unspecified) [US20250235456, Compound 69], for which the IC50 in experiment [1] is less than 0.2 µM.
Consider `Cc1cc2cnc(NC3CCN(S(C)(=O)=O)CC3)nc2c(N2CC3(CNCC3(F)F)C2)n1` [US20250235456, Compound 85], for which the 50% inhibitory concentration (IC50) in experiment [1], in experiment [2] and in experiment [3] was less than 0.2 µM throughout.
On to `Cc1cc2cnc(N[C@@H]3CCOC[C@H]3O)nc2c(N2CC(O)(C3CC3)C2)n1` [US20250235456, Compound 86], for which the half-inhibitory concentration (IC50) in experiment [1] is greater than 2 µM; in experiment [2] it was “in the range around 0.35 µM”; in experiment [3], 0.2 to 0.5 µM.
In the case of `CS(=O)(=O)N1CCC(Nc2ncc3cc(C(F)F)nc(N4CC5(CCNCC5(F)F)C4)c3n2)CC1` [US20250235456, Compound 90], the IC50 in experiment [2] and in experiment [3] was less than 0.2 µM in each case.
In experiment [2], `Cc1cc2cnc(NC3CCN(S(=O)(=O)c4ccn(C)n4)CC3)nc2c(N2CC(F)(F)C3(CNC3)C2)n1` [US20250235456, Compound 94] yielded an IC50 of less than 0.2 µM.
With `Cc1cc2cnc(NC3CCN(S(C)(=O)=O)CC3)nc2c(N2CC3(CNCC3C(F)F)C2)n1` (stereo unspecified) [US20250235456, Compound 100], the IC50 in experiment [1], in experiment [2] and in experiment [3] was less than 0.2 µM throughout.
With `Cc1cc2cnc(NC3CCN(S(C)(=O)=O)CC3)nc2c(N2CC3(CN(C)CC3(F)F)C2)n1` [US20250235456, Compound 101], the IC50 in experiment [1] was 0.2 to 0.5 µM; in experiment [2], less than 0.2 µM; in experiment [3] it was less than 0.2 µM.
